{
  "source": "patent US8729064B2",
  "about": "“Heteroaromatic and aromatic piperazinyl azetidinyl amides as monoacylglycerol lipase inhibitors” (Janssen Pharmaceutica, NV, priority 2009, dated 2014)",
  "data": [
    {"target": "T1, MGL activity in HeLa cell homogenate (Homo sapiens, UniProt Q99685)", "T1 construct": "HeLa cells were homogenated with a Polytron; endogenous in cells; host or cells: HeLa cell homogenate", "T1 sequence (Q99685 1-303)": "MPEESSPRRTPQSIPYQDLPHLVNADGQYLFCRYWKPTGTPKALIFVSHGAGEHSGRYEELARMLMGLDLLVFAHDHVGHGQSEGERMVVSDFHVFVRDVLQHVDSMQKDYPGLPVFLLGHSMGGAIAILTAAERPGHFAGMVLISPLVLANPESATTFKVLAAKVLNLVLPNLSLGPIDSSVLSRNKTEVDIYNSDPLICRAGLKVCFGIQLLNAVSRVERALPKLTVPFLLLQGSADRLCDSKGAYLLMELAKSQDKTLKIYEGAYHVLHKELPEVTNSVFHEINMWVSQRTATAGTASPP", "assay": "2-AG Accumulation Assay in HeLa cell homogenate", "type": "biochemical", "settings": "compound 1 μM, accumulated 2-AG relative to MAFP 2-AG x100", "units": {"Example 4 % MAFP @ 1 μM": "% MAFP"}, "values": [
      {"smiles": "O=C(c1ccc2nc(C3CCCCC3)oc2c1)N1CC(N2CCN(c3ccccn3)CC2)C1", "note": "[Compound 2, (2-Cyclohexyl-benzooxazol-6-yl)-[3-(4-pyridin-2-yl-piperazin-1-yl)-azetidin-1-yl]-methanone]", "Example 4 % MAFP @ 1 μM": 39.7},
      {"smiles": "O=C(c1cccc2nc(-c3cccc(F)c3)oc12)N1CC(N2CCN(c3ccccn3)CC2)C1", "note": "[Compound 3, [2-(3-Fluoro-phenyl)-benzooxazol-7-yl]-[3-(4-pyridin-2-yl-piperazin-1-yl)-azetidin-1-yl]-methanone]", "Example 4 % MAFP @ 1 μM": 45.7},
      {"smiles": "O=C(c1cccc2nc(-c3ccc(F)cc3)oc12)N1CC(N2CCN(c3ccccn3)CC2)C1", "note": "[Compound 6, [2-(4-Fluoro-phenyl)-benzooxazol-7-yl]-[3-(4-pyridin-2-yl-piperazin-1-yl)-azetidin-1-yl]-methanone]", "Example 4 % MAFP @ 1 μM": 30.6},
      {"smiles": "CC(C)(C)c1nc2ccc(C(=O)N3CC(N4CCN(c5ccccn5)CC4)C3)cc2o1", "note": "[Compound 19, (2-tert-Butyl-benzooxazol-6-yl)-[3-(4-pyridin-2-yl-piperazin-1-yl)-azetidin-1-yl]-methanone]", "Example 4 % MAFP @ 1 μM": 19.9}
    ]},
    {"target": "T1, MGL activity in HeLa cell homogenate", "assay": "2-AG Accumulation Assay in HeLa cell homogenate", "type": "biochemical", "settings": "compound 10 μM, accumulated 2-AG relative to MAFP 2-AG x100", "units": {"Example 4 % MAFP @ 10 μM": "% MAFP"}, "values": [
      {"smiles": "O=C(c1ccc2nc(C3CCCCC3)oc2c1)N1CC(N2CCN(c3ccccn3)CC2)C1", "note": "[Compound 2, (2-Cyclohexyl-benzooxazol-6-yl)-[3-(4-pyridin-2-yl-piperazin-1-yl)-azetidin-1-yl]-methanone]", "Example 4 % MAFP @ 10 μM": 87.6},
      {"smiles": "O=C(c1cccc2nc(-c3cccc(F)c3)oc12)N1CC(N2CCN(c3ccccn3)CC2)C1", "note": "[Compound 3, [2-(3-Fluoro-phenyl)-benzooxazol-7-yl]-[3-(4-pyridin-2-yl-piperazin-1-yl)-azetidin-1-yl]-methanone]", "Example 4 % MAFP @ 10 μM": 82.9},
      {"smiles": "O=C(c1cccc2nc(-c3ccc(F)cc3)oc12)N1CC(N2CCN(c3ccccn3)CC2)C1", "note": "[Compound 6, [2-(4-Fluoro-phenyl)-benzooxazol-7-yl]-[3-(4-pyridin-2-yl-piperazin-1-yl)-azetidin-1-yl]-methanone]", "Example 4 % MAFP @ 10 μM": 68.8},
      {"smiles": "COc1ccc(-c2nc3cccc(C(=O)N4CC(N5CCN(c6ccccn6)CC5)C4)c3o2)cc1", "note": "[Compound 7, [2-(4-Methoxy-phenyl)-benzooxazol-7-yl]-[3-(4-pyridin-2-yl-piperazin-1-yl)-azetidin-1-yl]-methanone]", "Example 4 % MAFP @ 10 μM": 79.5},
      {"smiles": "CC(C)Cc1cc2cc(C(=O)N3CC(N4CCN(c5ccccn5)CC4)C3)ccc2n1CC(C)C", "note": "[Compound 8, (1,2-Diisobutyl-1H-indol-5-yl)-[3-(4-pyridin-2-yl-piperazin-1-yl)-azetidin-1-yl]-methanone]", "Example 4 % MAFP @ 10 μM": 72.9},
      {"smiles": "CC(C)Cn1c(COc2ccccc2)cc2cc(C(=O)N3CC(N4CCN(c5ccccn5)CC4)C3)ccc21", "note": "[Compound 9, (1-Isobutyl-2-phenoxymethyl-1H-indol-5-yl)-[3-(4-pyridin-2-yl-piperazin-1-yl)-azetidin-1-yl]-methanone]", "Example 4 % MAFP @ 10 μM": 67.8},
      {"smiles": "CC(C)(C)Cn1c(-c2ccccc2)cc2cc(C(=O)N3CC(N4CCN(c5ccccn5)CC4)C3)ccc21", "note": "[Compound 10, [1-(2,2-Dimethyl-propyl)-2-phenyl-1H-indol-5-yl]-[3-(4-pyridin-2-yl-piperazin-1-yl)-azetidin-1-yl]-methanone]", "Example 4 % MAFP @ 10 μM": 160.1},
      {"smiles": "O=C(c1ccc2c(c1)cc(COc1ccccc1)n2CC1CCCCC1)N1CC(N2CCN(c3ccccn3)CC2)C1", "note": "[Compound 11, (1-Cyclohexylmethyl-2-phenoxymethyl-1H-indol-5-yl)-[3-(4-pyridin-2-yl-piperazin-1-yl)-azetidin-1-yl]-methanone]", "Example 4 % MAFP @ 10 μM": 160.1},
      {"smiles": "Cn1c(CC2CCCC2)cc2cc(C(=O)N3CC(N4CCN(c5ccccn5)CC4)C3)ccc21", "note": "[Compound 12, (2-Cyclopentylmethyl-1-methyl-1H-indol-5-yl)-[3-(4-pyridin-2-yl-piperazin-1-yl)-azetidin-1-yl]-methanone]", "Example 4 % MAFP @ 10 μM": 142.0},
      {"smiles": "CC(C)Cn1c(-c2ccccc2)cc2cc(C(=O)N3CC(N4CCN(c5ccccn5)CC4)C3)ccc21", "note": "[Compound 13, (1-Isobutyl-2-phenyl-1H-indol-5-yl)-[3-(4-pyridin-2-yl-piperazin-1-yl)-azetidin-1-yl]-methanone]", "Example 4 % MAFP @ 10 μM": 93.5},
      {"smiles": "O=C(c1ccc2[nH]c(CC3CCCCC3)cc2c1)N1CC(N2CCN(c3ccccn3)CC2)C1", "note": "[Compound 14, (2-Cyclohexylmethyl-1H-indol-5-yl)-[3-(4-pyridin-2-yl-piperazin-1-yl)-azetidin-1-yl]-methanone]", "Example 4 % MAFP @ 10 μM": 53.7},
      {"smiles": "COc1ccccc1Cc1nc2cc(C(=O)N3CC(N4CCN(c5ccccn5)CC4)C3)ccc2o1", "note": "[Compound 15, [2-(2-Methoxy-benzyl)-benzooxazol-5-yl]-[3-(4-pyridin-2-yl-piperazin-1-yl)-azetidin-1-yl]-methanone]", "Example 4 % MAFP @ 10 μM": 57.6},
      {"smiles": "COc1ccccc1N1CCN(C2CN(C(=O)c3ccc4c(c3)cc(COc3ccccc3)n4CC(C)C)C2)CC1", "note": "[Compound 17, (1-Isobutyl-2-phenoxymethyl-1H-indol-5-yl)-{3-[4-(2-methoxy-phenyl)-piperazin-1-yl]-azetidin-1-yl}-methanone]", "Example 4 % MAFP @ 10 μM": 25.9},
      {"smiles": "O=C(c1ccc2c(c1)cc(Cc1ccccc1)n2CC1CCCCC1)N1CC(N2CCN(c3ccccn3)CC2)C1", "note": "[Compound 18, (2-Benzyl-1-cyclohexylmethyl-1H-indol-5-yl)-[3-(4-pyridin-2-yl-piperazin-1-yl)-azetidin-1-yl]-methanone]", "Example 4 % MAFP @ 10 μM": 134.6},
      {"smiles": "CC(C)(C)c1nc2ccc(C(=O)N3CC(N4CCN(c5ccccn5)CC4)C3)cc2o1", "note": "[Compound 19, (2-tert-Butyl-benzooxazol-6-yl)-[3-(4-pyridin-2-yl-piperazin-1-yl)-azetidin-1-yl]-methanone]", "Example 4 % MAFP @ 10 μM": 47.3},
      {"smiles": "COc1cccc(-c2nc3cc(C(=O)N4CC(N5CCN(c6ccccn6)CC5)C4)ccc3o2)c1", "note": "[Compound 20, [2-(3-Methoxy-phenyl)-benzooxazol-5-yl]-[3-(4-pyridin-2-yl-piperazin-1-yl)-azetidin-1-yl]-methanone]", "Example 4 % MAFP @ 10 μM": 86.9},
      {"smiles": "COc1ccccc1N1CCN(C2CN(C(=O)c3ccc4c(c3)cc(Cc3ccccc3)n4CC(C)C)C2)CC1", "note": "[Compound 21, (2-Benzyl-1-isobutyl-1H-indol-5-yl)-{3-[4-(2-methoxy-phenyl)-piperazin-1-yl]-azetidin-1-yl}-methanone]", "Example 4 % MAFP @ 10 μM": 29.2},
      {"smiles": "COc1ccccc1N1CCN(C2CN(C(=O)c3ccc4c(c3)cc(COc3ccccc3)n4CC(C)(C)C)C2)CC1", "note": "[Compound 22, [1-(2,2-Dimethyl-propyl)-2-phenoxymethyl-1H-indol-5-yl]-{3-[4-(2-methoxy-phenyl)-piperazin-1-yl]-azetidin-1-yl}-methanone]", "Example 4 % MAFP @ 10 μM": 50.1},
      {"smiles": "COc1ccccc1N1CCN(C2CN(C(=O)c3ccc4c(c3)cc(Cc3ccccc3)n4CC3CCCCC3)C2)CC1", "note": "[Compound 23, (2-Benzyl-1-cyclohexylmethyl-1H-indol-5-yl)-{3-[4-(2-methoxy-phenyl)-piperazin-1-yl]-azetidin-1-yl}-methanone]", "Example 4 % MAFP @ 10 μM": 84.5},
      {"smiles": "COc1ccccc1N1CCN(C2CN(C(=O)c3ccc4c(c3)cc(-c3ccccc3)n4CC(C)(C)C)C2)CC1", "note": "[Compound 24, [1-(2,2-Dimethyl-propyl)-2-phenyl-1H-indol-5-yl]-{3-[4-(2-methoxy-phenyl)-piperazin-1-yl]-azetidin-1-yl}-methanone]", "Example 4 % MAFP @ 10 μM": 58.8},
      {"smiles": "CC(C)(C)Cn1c(-c2ccccc2)cc2cc(C(=O)N3CC(N4CCN(c5ccc(F)cc5)CC4)C3)ccc21", "note": "[Compound 25, [1-(2,2-Dimethyl-propyl)-2-phenyl-1H-indol-5-yl]-{3-[4-(4-fluoro-phenyl)-piperazin-1-yl]-azetidin-1-yl}-methanone]", "Example 4 % MAFP @ 10 μM": 65.8},
      {"smiles": "CC(C)(C)Cn1c(C(C)(C)C)cc2cc(C(=O)N3CC(N4CCN(c5ccccn5)CC4)C3)ccc21", "note": "[Compound 26, [2-tert-Butyl-1-(2,2-dimethyl-propyl)-1H-indol-5-yl]-[3-(4-pyridin-2-yl-piperazin-1-yl)-azetidin-1-yl]-methanone]", "Example 4 % MAFP @ 10 μM": 37.0},
      {"smiles": "COCC(=O)c1c(-c2ccc(C)cc2)[nH]c2ccc(C(=O)N3CC(N4CCN(c5ccccn5)CC4)C3)cc12", "note": "[Compound 27, 2-Methoxy-1-{5-[3-(4-pyridin-2-yl-piperazin-1-yl)-azetidine-1-carbonyl]-2-p-tolyl-1H-indol-3-yl}-ethanone]", "Example 4 % MAFP @ 10 μM": 76.3},
      {"smiles": "CCCc1cc2cc(C(=O)N3CC(N4CCN(c5ccccn5)CC4)C3)ccc2n1CC1CCCCC1", "note": "[Compound 28, (1-Cyclohexylmethyl-2-propyl-1H-indol-5-yl)-[3-(4-pyridin-2-yl-piperazin-1-yl)-azetidin-1-yl]-methanone]", "Example 4 % MAFP @ 10 μM": 77.0}
    ]}
  ]
}
